From ChEMBL document CHEMBL4177638, “Challenges in the development of an M4 PAM preclinical candidate: The discovery, SAR, and biological characterization of a series of azetidine-derived tertiary amides” (Bioorg Med Chem Lett, 2017)
Calls of active or inactive are those of the source. No cut-off for these calls is given here.

What was measured:
[1] = molecular target: T1, Muscarinic acetylcholine receptor M4 (Homo sapiens) (UniProt P08173); test: Positive allosteric modulation of human M4 receptor expressed in CHO cells co-expressing Gqi5 assessed as increase in acetylcholine-induced calcium mobilization relative to acetylcholine; format: functional, cell-based
T1 sequence (whole entry): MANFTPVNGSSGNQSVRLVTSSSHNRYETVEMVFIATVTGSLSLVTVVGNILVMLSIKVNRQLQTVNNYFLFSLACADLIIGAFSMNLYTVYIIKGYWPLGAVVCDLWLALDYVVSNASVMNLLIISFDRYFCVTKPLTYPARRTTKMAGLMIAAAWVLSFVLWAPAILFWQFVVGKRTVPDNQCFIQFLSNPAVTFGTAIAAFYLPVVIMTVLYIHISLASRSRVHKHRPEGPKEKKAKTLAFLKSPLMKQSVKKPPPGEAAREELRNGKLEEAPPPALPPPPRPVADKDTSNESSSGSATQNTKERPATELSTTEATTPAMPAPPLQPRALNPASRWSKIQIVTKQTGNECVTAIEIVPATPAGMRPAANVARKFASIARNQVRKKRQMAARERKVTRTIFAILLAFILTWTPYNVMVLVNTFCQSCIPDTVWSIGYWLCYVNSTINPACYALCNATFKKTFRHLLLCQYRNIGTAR

[2] = molecular target: T2, Muscarinic acetylcholine receptor M4 (Homo sapiens, UniProt P08173); test: Positive allosteric modulation of human M4 receptor expressed in CHO cells co-expressing Gqi5 assessed as increase in acetylcholine-induced calcium mobilization; format: functional, cell-based
T2 sequence (P08173 whole entry): T1 sequence (whole entry)

[3] = molecular target: T3, Muscarinic acetylcholine receptor M2 (Homo sapiens) (UniProt P08172); test: (§1) Positive allosteric modulation of human M2 receptor assessed as increase in acetylcholine-induced response; format: functional
T3 sequence (whole entry): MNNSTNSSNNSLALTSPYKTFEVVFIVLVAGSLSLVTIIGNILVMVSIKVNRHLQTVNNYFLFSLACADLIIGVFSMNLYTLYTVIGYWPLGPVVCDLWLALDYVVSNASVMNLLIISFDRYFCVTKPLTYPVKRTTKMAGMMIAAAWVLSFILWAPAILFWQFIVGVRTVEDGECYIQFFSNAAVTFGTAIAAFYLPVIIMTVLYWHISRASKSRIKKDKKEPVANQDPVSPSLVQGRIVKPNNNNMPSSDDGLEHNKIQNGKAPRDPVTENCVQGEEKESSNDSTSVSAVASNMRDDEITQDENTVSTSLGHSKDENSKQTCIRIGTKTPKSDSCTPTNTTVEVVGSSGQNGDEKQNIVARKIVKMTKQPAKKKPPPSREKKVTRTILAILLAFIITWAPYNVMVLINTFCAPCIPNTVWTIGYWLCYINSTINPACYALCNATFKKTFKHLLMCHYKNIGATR

[4] = Ratio of unbound brain to plasma concentration in rat; format: ADME, cell-free
[5] = Brain to plasma partition coefficient, Kp of the compound in rat; format: ADME, cell-free
[6] = molecular target: T4, Muscarinic acetylcholine receptor M2 (Homo sapiens, UniProt P08172); test: as §1; format: functional
T4 sequence (P08172 whole entry): T3 sequence (whole entry)

[7] = molecular target: T3, Muscarinic acetylcholine receptor M2 (Homo sapiens); test: Positive allosteric modulation of human M2 receptor assessed as increase in acetylcholine-induced response relative to acetylcholine; format: functional
[8] = Elimination half life in Sprague-Dawley rat at 0.1 to 1 mg/kg, iv; format: ADME, organism-based; conditions: in vivo, read-out: beta t1/2 (converted)
[9] = Ratio of unbound brain to plasma concentration in Sprague-Dawley rat at 0.1 to 0.2 mg/kg, iv measured after 0.25 hrs; format: ADME, organism-based; conditions: read-out: K(p,uu,brain)
[10] = Aqueous solubility of the compound at pH 7.4; format: physicochemical; conditions: aqueous medium
[11] = Clearance in Sprague-Dawley rat plasma at 0.1 to 1 mg/kg, iv; format: ADME, organism-based
[12] = Brain to plasma partition coefficient, Kp of the compound in Sprague-Dawley rat at 0.1 to 0.2 mg/kg, iv measured after 0.25 hrs; format: ADME, organism-based
[13] = molecular target: T5, Muscarinic acetylcholine receptor M1 (Homo sapiens, UniProt P11229); test: Positive allosteric modulation of human M1 receptor assessed as increase in acetylcholine-induced response; format: functional
T5 sequence (P11229 whole entry): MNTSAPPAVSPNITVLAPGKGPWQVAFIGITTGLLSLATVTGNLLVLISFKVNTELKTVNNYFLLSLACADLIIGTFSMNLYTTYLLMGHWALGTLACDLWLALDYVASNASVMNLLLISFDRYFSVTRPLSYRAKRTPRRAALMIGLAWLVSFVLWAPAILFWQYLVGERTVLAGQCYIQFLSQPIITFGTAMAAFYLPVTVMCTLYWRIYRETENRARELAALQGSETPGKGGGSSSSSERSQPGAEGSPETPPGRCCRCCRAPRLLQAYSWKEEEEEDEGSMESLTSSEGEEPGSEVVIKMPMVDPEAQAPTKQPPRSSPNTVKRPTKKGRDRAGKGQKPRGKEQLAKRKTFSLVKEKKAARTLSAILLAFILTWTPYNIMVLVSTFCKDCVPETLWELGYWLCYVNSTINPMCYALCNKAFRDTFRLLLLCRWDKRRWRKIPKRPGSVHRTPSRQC

[14] = molecular target: Muscarinic acetylcholine receptor M3 (Homo sapiens, UniProt P20309); test: Positive allosteric modulation of human M3 receptor assessed as increase in acetylcholine-induced response; format: functional
Chain of Muscarinic acetylcholine receptor M3 (P20309 whole entry): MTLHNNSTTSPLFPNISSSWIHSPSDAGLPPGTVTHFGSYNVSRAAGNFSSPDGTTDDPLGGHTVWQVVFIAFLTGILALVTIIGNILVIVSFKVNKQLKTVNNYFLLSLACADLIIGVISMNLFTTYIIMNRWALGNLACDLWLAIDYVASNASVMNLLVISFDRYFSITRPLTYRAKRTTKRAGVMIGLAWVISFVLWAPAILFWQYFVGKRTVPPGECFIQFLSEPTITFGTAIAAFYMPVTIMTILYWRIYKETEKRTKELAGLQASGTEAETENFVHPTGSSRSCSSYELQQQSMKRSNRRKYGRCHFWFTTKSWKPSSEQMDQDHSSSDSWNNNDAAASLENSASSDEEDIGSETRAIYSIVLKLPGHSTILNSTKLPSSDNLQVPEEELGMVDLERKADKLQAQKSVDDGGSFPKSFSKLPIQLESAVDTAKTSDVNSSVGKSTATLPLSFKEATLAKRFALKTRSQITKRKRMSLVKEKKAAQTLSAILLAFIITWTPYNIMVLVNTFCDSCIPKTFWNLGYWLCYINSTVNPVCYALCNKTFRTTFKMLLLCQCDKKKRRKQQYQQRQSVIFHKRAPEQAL

[15] = molecular target: T6, Muscarinic acetylcholine receptor M5 (Homo sapiens, UniProt P08912); test: Positive allosteric modulation of human M5 receptor assessed as increase in acetylcholine-induced response; format: functional
T6 sequence (P08912 whole entry): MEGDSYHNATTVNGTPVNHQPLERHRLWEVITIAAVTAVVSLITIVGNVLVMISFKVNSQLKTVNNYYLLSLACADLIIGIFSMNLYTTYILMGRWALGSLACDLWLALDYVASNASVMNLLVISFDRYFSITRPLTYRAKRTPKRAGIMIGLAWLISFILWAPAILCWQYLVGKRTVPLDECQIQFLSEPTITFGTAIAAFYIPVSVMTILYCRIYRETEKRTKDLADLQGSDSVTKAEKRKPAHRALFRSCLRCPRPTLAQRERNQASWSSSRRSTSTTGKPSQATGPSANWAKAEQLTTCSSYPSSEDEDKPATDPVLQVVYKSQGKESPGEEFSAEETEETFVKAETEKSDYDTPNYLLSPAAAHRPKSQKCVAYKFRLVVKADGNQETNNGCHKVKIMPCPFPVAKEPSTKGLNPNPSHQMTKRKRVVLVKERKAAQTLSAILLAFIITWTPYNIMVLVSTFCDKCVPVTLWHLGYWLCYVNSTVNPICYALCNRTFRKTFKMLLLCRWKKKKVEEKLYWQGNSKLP

[16] = Ratio of EC50 for rat M4 receptor to EC50 for human M4 receptor expressed in CHO cells co-expressing Gqi5; format: cell-based
Rattus norvegicus = test: Antipsychotic activity in rat assessed as reversal of amphetamine-induced hyperlocomotion at 30 mg/kg, po; format: functional
[17] = Oral bioavailability in dog at 10 mg/kg; format: ADME, organism-based, Canis lupus familiaris; conditions: in vivo

Row | Structure (SMILES) | %max [1] [%] | EC50 [2] [nM] | further results
1 | Cc1nnc2sc(C(=O)N3CC(c4ccccc4)C3C)c(N)c2c1C (stereo not given) | 45 | 1510 | –
2 | Cc1ccc(C2CN(C(=O)c3sc4nnc(C)c(C)c4c3N)C2)cc1 | 82 | 1100 | –
3 | Cc1nnc2sc(C(=O)N3CC(c4cccc(F)c4)C3C)c(N)c2c1C (stereo not given) | 45 | 1460 | –
4 | Cc1cccc(C2CN(C(=O)c3sc4nnc(C)c(C)c4c3N)C2)c1 | 83 | 851 | –
5 | COc1cccc(C2CN(C(=O)c3sc4nnc(C)c(C)c4c3N)C2)c1 | – | > 10000 | –
6 | Cc1nnc2sc(C(=O)NCc3ccc(S(=O)(=O)C(F)(F)F)cc3)c(N)c2c1C | – | – | half-life [8]: 2.7 h; Kp uu at 0.25 h [9]: 1.2; solubility [10]: < 0.5 µM; clearance [11]: 1.6 mL/min/kg; Kp at 0.25 h [12]: 0.11
7 | Cc1nnc2sc(C(=O)N3CC(c4ccc(Cl)cc4)C3)c(N)c2c1C | – | > 10000 | –
8 | Cc1nnc2sc(C(=O)N3CC(c4ccc(Br)cc4)C3)c(N)c2c1C | – | > 10000 | –
9 | Cc1nnc2sc(C(=O)N3CC4(CCN(c5cccnc5)C4)C3)c(N)c2c1C | 53 to 57 | – | –
10 | COc1ccccc1C1CN(C(=O)c2sc3nnc(C)c(C)c3c2N)C1 | 54 | 2290 | –
11 | Cc1nnc2sc(C(=O)N3CC(O)(c4ccccc4)C3)c(N)c2c1C | 30 | 1050 | –
12 | Cc1ccccc1C1CN(C(=O)c2sc3nnc(C)c(C)c3c2N)C1 | 72 | 457 | –
13 | Cc1nnc2sc(C(=O)N3CC(F)(c4ccccn4)C3)c(N)c2c1C | 78 | 2240 | –
14 | Cc1nnc2sc(C(=O)NCc3ccc(S(=O)(=O)C(F)(F)F)cc3)c(N)c2c1C.Cl | – | – | bioavailability [17]: 4.7%

Continued, in another order:

Row | %max [1] [%] | EC50 [2] [nM] | Structure (SMILES) | further results
15 | 80 | 151 | Cc1nnc2sc(C(=O)N3CC(c4ccc(F)cc4)C3)c(N)c2c1C | Activity [3]: inactive; K(p,uu,brain) [4]: 1.3; Kp [5]: 2.3
16 | 67 | 447 | Cc1nnc2sc(C(=O)N3CC(F)(c4cccc(F)c4)C3)c(N)c2c1C | –
17 | 75 | 407 | Cc1nnc2sc(C(=O)N3CC(c4ccccc4F)C3)c(N)c2c1C | –
18 | 83 | 57 | Cc1nnc2sc(C(=O)N3CC(c4cccc(F)c4)C3)c(N)c2c1C | EC50 [6]: 2100 nM; K(p,uu,brain) [4]: 0.92; %max [7]: 38%; Kp [5]: 2.1
19 | 36 | 417 | COC1(c2cccc(F)c2)CN(C(=O)c2sc3nnc(C)c(C)c3c2N)C1 | –
20 | 94 | 331 | COc1ccc(C2CN(C(=O)c3sc4nnc(C)c(C)c4c3N)C2)cc1 | –
21 | 78 | 200 | Cc1nnc2sc(C(=O)N3CC(c4cccs4)C3)c(N)c2c1C | –
22 | 54 | 178 | Cc1nnc2sc(C(=O)N3CC(C4CCCCC4)C3)c(N)c2c1C | K(p,uu,brain) [4]: 0.71; Kp [5]: 8.46
23 | 98 | 363 | Cc1nnc2sc(C(=O)N3CC(C)(F)C3)c(N)c2c1C | –
24 | 85 | 316 | CCCCC1(F)CN(C(=O)c2sc3nnc(C)c(C)c3c2N)C1 | –
25 | 65 | 72 | Cc1nnc2sc(C(=O)N3CC(c4ccccc4)C3)c(N)c2c1C | EC50 [13]: > 10000 nM; EC50 [14]: > 10000 nM; EC50 [15]: > 10000 nM; Ratio EC50 [16]: 2; EC50 [6]: > 10000 nM; K(p,uu,brain) [4]: 2.1; Kp [5]: 2.6; Activity (Rattus norvegicus): 32%
